Experimental data from US4831026A, “2-oxa-isocephem compounds, compositions containing same and processes of using” (Otsuka Pharmaceutical Co., Ltd., priority 1985, dated 1989).
Where two headings read alike, the source gives them in different places.

Assays:
P. mirabilis 1287 = test: Antimicrobial activity test: MIC by the agar plate dilution method, P. mirabilis 1287; format: cell-based
Procedure: (§1) In order to investigate the in vitro activity of the under-mentioned compounds against various bacteria, the minimal inhibitory concentration (MIC) values were determined by the agar plate dilution method [see Chemotherapy, 22, 1126-1128 (1974)].
(§2) Each test inoculum was adjusted to 1×10^6 cells/ml (O.D., 600 mμ: 0.07-0.16).

P. aeruginosa NCTC-10490 = test: Antimicrobial activity test: MIC by the agar plate dilution method, P. aeruginosa NCTC-10490; format: cell-based; conditions: inoculum 1×10^6 cells/ml
Procedure: as §1, §2

M. morganii ATCC-25830 = test: Antimicrobial activity test: MIC by the agar plate dilution method, M. morganii ATCC-25830; format: cell-based; conditions: inoculum 1×10^6 cells/ml
Procedure: as §1, §2

S. marcescens IFO-12648 = test: Antimicrobial activity test: MIC by the agar plate dilution method, S. marcescens IFO-12648; format: cell-based
Procedure: as §1, §2

E. coli NIHJ = test: Antimicrobial activity test: MIC by the agar plate dilution method, E. coli NIHJ; format: cell-based; conditions: inoculum 1×10^6 cells/ml
Procedure: as §1, §2

E. coli No. 29 = test: Antimicrobial activity test: MIC by the agar plate dilution method, E. coli No. 29; format: cell-based
Procedure: as §1, §2

K. pneumoniae NCTC-9632 = test: Antimicrobial activity test: MIC by the agar plate dilution method, K. pneumoniae NCTC-9632; format: cell-based; conditions: inoculum 1×10^6 cells/ml
Procedure: as §1, §2

S. aureus FDA-209-p = test: Antimicrobial activity test: MIC by the agar plate dilution method, S. aureus FDA-209-p; format: cell-based, Staphylococcus aureus; conditions: inoculum 1×10^6 cells/ml
Procedure: as §1, §2

[1] = P. mirabilis 1287, inoculum 1×10^6 cells/ml
[2] = E. coli No. 29, inoculum 1×10^6 cells/ml
[3] = S. marcescens IFO-12648, inoculum 1×10^6 cells/ml

Substance: 7-[2-(2-Formamidothiazol-4-yl)-2-(2-chloroethoxy)iminoacetamido]-3-[(1,3,4- thiadiazol-2-yl)thiomethyl-]-Δ^3 -O-2-isocephem-4-carboxylic acid (syn-isomer) [Example 33]
- MIC (P. mirabilis 1287; [1]): 0.05 µg/mL
- MIC (P. aeruginosa NCTC-10490): 1.56 µg/mL
- MIC (M. morganii ATCC-25830): 0.2 µg/mL
- MIC (S. marcescens IFO-12648): 0.78 µg/mL
- MIC (E. coli NIHJ): 0.1 µg/mL
- MIC (E. coli No. 29; [2]): 0.2 µg/mL
- MIC (K. pneumoniae NCTC-9632): 0.1 µg/mL

Substance: 7-[2-(2-Aminothiazol-4-yl)-2-[(2-butenyl)oxyimino]acetamido]-3-[(1,3,4-thiadiazol-2-yl)thiomethyl]-Δ^3 -O-2-isocephem-4-carboxylic acid trifluoroacetate (syn-isomer) [Example 38]
- MIC (P. mirabilis 1287; [1]): 0.2 µg/mL
- MIC (P. aeruginosa NCTC-10490): 1.56 µg/mL
- MIC (M. morganii ATCC-25830): 0.39 µg/mL
- MIC (S. aureus FDA-209-p): 0.39 µg/mL
- MIC (S. marcescens IFO-12648): 0.78 µg/mL
- MIC (E. coli No. 29; [2]): 0.1 µg/mL
- MIC (K. pneumoniae NCTC-9632): 0.2 µg/mL

Substance: Benzhydryl 7-[2-(2-formamidothiazol-4-yl)-2-methylthiomethoxyiminoacetamido]-3-[(1,3,4-thiadiazol-2-yl)thiomethyl]-Δ^3 -O-2-isocephem-4-carboxylate (syn-isomer) [Example 44]
- MIC (P. mirabilis 1287): 0.2 µg/mL
- MIC (P. aeruginosa NCTC-10490): 3.13 µg/mL
- MIC (M. morganii ATCC-25830): 0.78 µg/mL
- MIC (S. aureus FDA-209-p): 0.39 µg/mL
- MIC (S. marcescens IFO-12648): 1.56 µg/mL
- MIC (E. coli No. 29): 0.2 µg/mL
- MIC (K. pneumoniae NCTC-9632): 0.39 µg/mL

Substance: 7-[2-(2-Formamidothiazol-4-yl)-2-ethoxyiminoacetamido]-3-[(1,3,4-thiadiazol-2-yl)thiomethyl-]-Δ^3 -O-2-isocephem-4-carboxylic acid (syn-isomer) [Example 31]
- MIC (P. mirabilis 1287; [1]): ≤ 0.025 µg/mL
- MIC (P. aeruginosa NCTC-10490): 25 µg/mL
- MIC (M. morganii ATCC-25830): 0.05 µg/mL
- MIC (S. aureus FDA-209-p): 0.39 µg/mL
- MIC (S. marcescens IFO-12648): 0.39 µg/mL
- MIC (E. coli No. 29; [2]): ≤ 0.025 µg/mL
- MIC (K. pneumoniae NCTC-9632): 0.1 µg/mL

Substance: Benzyl 7-[2-(2-chloroacetamidothiazol-4-yl)-2-cyclopentyloxyiminoacetamido]-3-[(1,3,4-thiadiazol-2- yl)thiomethyl]-Δ^3 -O-2-isocephem-4-carboxylate (syn-isomer) [Example 25]
- MIC (P. mirabilis 1287; [1]): ≤ 0.025 µg/mL
- MIC (P. aeruginosa NCTC-10490): 0.78 µg/mL
- MIC (M. morganii ATCC-25830): ≤ 0.025 µg/mL
- MIC (S. aureus FDA-209-p): 1.56 µg/mL
- MIC (S. marcescens IFO-12648; [3]): 0.2 µg/mL
- MIC (E. coli No. 29; [2]): ≤ 0.025 µg/mL
- MIC (K. pneumoniae NCTC-9632): 0.05 µg/mL

Substance: Benzhydryl 7-[2-(2-tritylaminothiazol-4-yl)-2-[(1-tritylpyrazol-3-yl)methoxyiminoacetamido]-3-[(1,3,4-thiadiazol-2-yl)thiomethyl]-Δ^3 -O-2-isocephem-4-carboxylate (syn-isomer) [Example 23]
- MIC (P. mirabilis 1287; [1]): ≤ 0.025 µg/mL
- MIC (P. aeruginosa NCTC-10490): 12.5 µg/mL
- MIC (M. morganii ATCC-25830): 0.1 µg/mL
- MIC (S. aureus FDA-209-p): 6.25 µg/mL
- MIC (S. marcescens IFO-12648): 0.39 µg/mL
- MIC (E. coli No. 29; [2]): 0.2 µg/mL
- MIC (K. pneumoniae NCTC-9632): 0.1 µg/mL

Substance: 7-[2-(2-Aminothiazol-4-yl)-2-[(3-butenyl)oxyimino]acetamido]-3-[(1,3,4-thiadiazol-2-yl)thiomethyl-]-Δ^3 -O-2-isocephem-4-carboxylic acid trifluoroacetate (syn-isomer) [Example 40]
- MIC (P. mirabilis 1287; [1]): 6.25 µg/mL
- MIC (P. aeruginosa NCTC-10490): 25 µg/mL
- MIC (M. morganii ATCC-25830): 3.13 µg/mL
- MIC (S. aureus FDA-209-p): 6.25 µg/mL
- MIC (S. marcescens IFO-12648; [3]): 12.5 µg/mL
- MIC (E. coli No. 29): 3.13 µg/mL
- MIC (K. pneumoniae NCTC-9632): 3.13 µg/mL

Substance: 7-[2-(2-Trichloroacetamidothiazol-4-yl)-2-methoxyiminoacetamido]-3-[(carbamoyloxy)methyl]-Δ^3 -O-2-isocephem-4-carboxylic acid (syn-isomer) [Example 7]
- MIC (P. mirabilis 1287; [1]): ≤ 0.025 µg/mL
- MIC (P. aeruginosa NCTC-10490): 0.78 µg/mL
- MIC (M. morganii ATCC-25830): ≤ 0.025 µg/mL
- MIC (S. aureus FDA-209-p): 0.78 µg/mL
- MIC (S. marcescens IFO-12648): 0.39 µg/mL
- MIC (E. coli No. 29; [2]): 0.1 µg/mL
- MIC (K. pneumoniae NCTC-9632): 0.2 µg/mL
